“Also recorded” adds a separate entry of the source. One block for each molecule: values may come before it.
Legend:
[1] = cited from earlier work
[2] = cited from earlier work; remark: listed apart in the source
[3] = rats and dogs, cited from earlier work
[4] = system: NF-κB p65 subunit at Ser-536; test: Inhibition of NF-κB activity: immunoblot of phosphorylated p65 in primary leukemia cells; assay type: cell-based, human; conditions: primary leukemia cells treated six hours, FIG. 3A
Protocol: (§1) Primary leukemia cells were treated with varying concentrations of 1, 3 or 4 for six hours, followed by lysis and analysis by immunoblot. Inhibition of NF-κB activity was assessed by measuring phosphorylation of the NF-κB p65 subunit at Ser-536. […] To further evaluate the cytoxicity of 3 and 4, cell viability was measured following 24 h exposure to each compound. […] To achieve a similar degree of cell death with 4, treatment at 20-30 μM was required, in good agreement with the NF-κB phosphorylation analysis shown in FIG. 3A. Thus, while 3 and 4 retain the biological properties of 1, the activity of 4 is reduced approximately 2-fold. The minor loss in activity might be attributed to steric hindrance resulting from the addition of the bulky biotin moiety.
Cell lysates or pull-down products were diluted in 5×SDS-PAGE sample buffer (10% w/v SDS, 10 mM DDT, 20% glycerol, 0.2M Tris-HCl, pH 6.8, 0.05% w/v bromophenol blue), and run on 8-10% SDSPAGE gels. Protein gels were then transferred to PVDF membrane and blocked with 5% milk in 0.1% TBST (20 mM Tris-HCl pH 7.5, 137 mM NaCl, 0.1% Tween 20), followed by incubation with antibodies against p-p65(ser 536) (Cell Signaling), IKK-β (Cell Signaling), p65 (Santa Cruz), β-actin (Sigma), or SA-HRP probe (Thermo).

[5] = system: primary leukemia cells; test: Cell viability assay (Annexin V/7-AAD flow cytometry); assay type: cell-based, human; conditions: for concentration achieving efficient induction of cell death: 24 h exposure, FIG. 3B; for anti-leukemia activity compared to PTL (in words): primary AML specimens, FIG. 2
Protocol: as §1
Cells treated with different concentrations of 1, 3 or 4 were washed with cold PBS and resuspended in 200 μL of Annexin binding buffer (10 mM HEPES/NaOH pH 7.4; 140 mM NaCl; 2.5 mM CaCl2). Annexin-V and 7-amino-actinomycin (7-AAD) were added and the tubes were incubated at ambient temperature in the dark for 15 mins. Cells were then diluted with 200 μL of Annexin binding buffer and analyzed immediately by flow cytometry. Viable cells were scored as Annexin V negative/7-AAD negative. Percent viability data provided are normalized to untreated control specimens.

[6] = Water solubility; assay type: physicochemical
Protocol: Detailed SAR studies of PTL were performed to better understand the basic chemistry required to mediate anti-leukemia activity. […] In biological systems, the consequences of this reactivity are most prevalent for free thiols and cysteine residues. […] A series of PTL analogs was previously prepared with the goal of creating a more therapeutically useful derivative (Neelakantan et al., 2009). […] In addition, DMAPT retains virtually identical anti-leukemia properties as PTL, including the ability to selectively target LSCs. […] Based on these findings, DMAPT has advanced to phase 1 clinical trials, and is currently being evaluated in patients with advanced hematologic malignancies. DMAPT and certain PTL analogs are disclosed in U.S. Pat. Nos. 7,312,242 and 7,678,904, each of which is incorporated herein by reference.
The predicted poor oral bioavailability likely results from low aqueous solubility, since this causes a low dissolution-rate, which is often the rate-limit step during oral drug absorption. Fleisher et al., Improved oral drug delivery: solubility limitations overcome by the use of prodrugs. Adv Drug Deliv Rev, 19:115-130, 1996; Taylor, Improved passive oral drug delivery via prodrugs. Adv Drug Deliv Rev, 19:131-148, 1996. Furthermore, low water solubility can itself be a source of toxicity, due to precipitation of the drug, causing crystalluria. […]

[7] = target: T1, IKK-β (Homo sapiens, UniProt O14920); test: Streptavidin beads pull-down assay with immunoblot; assay type: binding
T1 construct: endogenous in cells; host or cells: primary leukemia (AML) cells
T1 sequence (O14920 1-756): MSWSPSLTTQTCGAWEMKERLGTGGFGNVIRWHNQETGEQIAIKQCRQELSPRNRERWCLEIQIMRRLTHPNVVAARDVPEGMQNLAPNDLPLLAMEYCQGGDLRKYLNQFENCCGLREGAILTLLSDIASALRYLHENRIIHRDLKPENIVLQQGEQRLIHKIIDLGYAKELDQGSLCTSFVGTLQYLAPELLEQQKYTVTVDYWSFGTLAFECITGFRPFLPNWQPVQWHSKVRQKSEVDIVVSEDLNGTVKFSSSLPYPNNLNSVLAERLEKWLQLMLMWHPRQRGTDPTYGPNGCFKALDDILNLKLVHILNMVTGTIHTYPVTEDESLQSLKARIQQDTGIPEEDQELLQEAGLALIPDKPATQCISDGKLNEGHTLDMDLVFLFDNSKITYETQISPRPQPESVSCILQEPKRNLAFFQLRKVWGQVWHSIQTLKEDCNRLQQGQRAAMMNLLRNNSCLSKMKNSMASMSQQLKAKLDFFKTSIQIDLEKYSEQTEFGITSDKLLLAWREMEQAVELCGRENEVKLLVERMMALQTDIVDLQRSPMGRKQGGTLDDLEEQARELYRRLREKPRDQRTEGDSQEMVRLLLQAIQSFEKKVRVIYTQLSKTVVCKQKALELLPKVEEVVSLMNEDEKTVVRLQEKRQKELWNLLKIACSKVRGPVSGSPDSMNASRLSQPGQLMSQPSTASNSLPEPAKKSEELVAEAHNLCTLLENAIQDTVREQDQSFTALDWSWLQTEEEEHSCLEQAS
Protocol: Subsequent studies employed 4 as a reagent to identify potential leukemic proteins modified by MMB. Primary human cells were treated with 20 uM 4 for 6 h, followed by lysis and immunoblot analysis using a streptavidin probe. […] Thus, while the chemistry of 4 should be essentially the same in any cell type, there must be intrinsic differences between normal and leukemic cells that lead to the interaction with unique targets. We propose that this differential binding contributes to the leukemia-specific cell death previously described for 1. To further validate the utility of 4 for analysis of protein targets, we performed biochemical pulldown studies. […] Kwok et al. Chem. Bio., 2001, 8, 759. Therefore, we tested whether 4 would also bind this protein. In FIG. 5, primary leukemia cells were pretreated for 2 h with 1 (lanes 2, 5) or biotin control (b.c.) (lanes 3, 6), prior to a 4 h incubation with 4. Cells were then lysed and immuno-precipitated by streptavidin beads. Pulldown products were analyzed by immunoblot to identify specific proteins. […] Kwok et al., Chem. Bio., 2001, 8, 759; Hehner et al., J. Immunol. 1999, 163, 5617.
Treated cells were washed three times in cold PBS and lysed in Buffer F (10 mM Tris-HCl pH 7.5, 50 mM NaCl, 30 mM Sodium pyrophosphate, 50 mM NaF, 5 μM ZnCl2, 1% Triton X-100) with freshly added proteinase inhibitors (1 mM PMSF, 1×PIC, 0.1 mM Na3OV4). […]

[8] = target: T2, NF-kB p65 subunit (Homo sapiens, UniProt Q04206); test: Streptavidin beads pull-down assay with immunoblot; assay type: binding; conditions: 2 h pretreatment before 4; FIG. 5 lane 5
T2 construct: endogenous in cells; host or cells: primary leukemia (AML) cells
Protocol: Primary human cells were treated with 20 uM 4 for 6 h, followed by lysis and immunoblot analysis using a streptavidin probe. […] Therefore, we tested whether 4 would also bind this protein. […] Cells were then lysed and immuno-precipitated by streptavidin beads. Pulldown products were analyzed by immunoblot to identify specific proteins.
Treated cells were washed three times in cold PBS and lysed in Buffer F (10 mM Tris-HCl pH 7.5, 50 mM NaCl, 30 mM Sodium pyrophosphate, 50 mM NaF, 5 μM ZnCl2, 1% Triton X-100) with freshly added proteinase inhibitors (1 mM PMSF, 1×PIC, 0.1 mM Na3OV4). Lysates were cleared by 10 mins of 12,000 rpm spinning at 4° C. and the supernatant was incubated with SA beads for 2 hours on an end-to-end rotor at 4° C. Beads were then washed sequentially with 1×PBS, high salt wash buffer (500 mM NaCl in 0.1 M pH 5.0 NaOAc), low pH wash buffer (0.1 M pH 2.8 glycine-HCl), and one last time in 1×PBS. After the wash steps, the SA beads were boiled for 10 mins in 2×SDS-PAGE sample buffer to elute down all pull-down products.
Cell lysates or pull-down products were diluted in 5×SDS-PAGE sample buffer (10% w/v SDS, 10 mM DDT, 20% glycerol, 0.2M Tris-HCl, pH 6.8, 0.05% w/v bromophenol blue), and run on 8-10% SDSPAGE gels. […]

[9] = system: glutathione; test: Metabolomic studies of glutathione; assay type: cell-based
Source text: For example, both thioredoxin and glutathione-S-transferase are targets of MMB. […] Furthermore, MMB also directly binds the major components of the HSP family (HSP60, 70, and 90). […] If true, then MMB could also impair the function of one or more HSPs. Taken together with the genomic data, these findings indicate a unique mechanism of action, where agents of this class act by inducing multiple stress response mechanisms and simultaneously impairing those very same mechanisms from functioning properly.

T2 sequence (Q04206 whole entry): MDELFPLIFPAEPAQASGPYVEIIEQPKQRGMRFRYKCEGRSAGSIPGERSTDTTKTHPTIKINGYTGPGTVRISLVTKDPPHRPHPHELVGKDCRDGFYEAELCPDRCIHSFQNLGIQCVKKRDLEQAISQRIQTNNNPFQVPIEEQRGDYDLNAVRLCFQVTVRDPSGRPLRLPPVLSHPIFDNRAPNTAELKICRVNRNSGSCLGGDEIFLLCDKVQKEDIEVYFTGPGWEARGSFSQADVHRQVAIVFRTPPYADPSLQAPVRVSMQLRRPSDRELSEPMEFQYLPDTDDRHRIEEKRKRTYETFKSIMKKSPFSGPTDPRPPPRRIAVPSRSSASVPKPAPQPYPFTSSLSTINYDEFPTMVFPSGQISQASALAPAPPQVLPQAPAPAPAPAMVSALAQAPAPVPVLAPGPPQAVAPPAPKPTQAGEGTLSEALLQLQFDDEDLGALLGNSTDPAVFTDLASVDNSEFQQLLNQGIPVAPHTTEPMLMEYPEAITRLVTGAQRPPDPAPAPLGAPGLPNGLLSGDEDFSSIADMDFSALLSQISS

Compound: C/C1=C\CC[C@@]2(C)O[C@@H]2[C@H]2OC(=O)[C@H](CN(C)C)[C@@H]2CC1 [DMAPT, dimethylaminoparthenolide]
- water solubility relative to PTL ([1]; formulated as a fumarate salt): ~1000 fold
- in vivo half-life [2]: approximately two
- oral bioavailability [3]: 70%
- tolerability ([3]; doses resulting in serum concentrations of up to 10-fold excess of the biologically active concentration): well tolerated

Compound: C=C1C(=O)O[C@@H]2[C@H]3O[C@]3(C)CC/C=C(\CO)CC[C@@H]12 [MMB, Melampomagnolide B]
- concentration at which a significant loss of phosphorylation of NF-κB p65 is observed [4]: 7.5 µM
- concentration achieving efficient induction of cell death [5]: 7.5 µM
- anti-leukemia activity compared to PTL (in words) [5]: indistinguishable from PTL; also recorded: identical anti-leukemia activity compared to PTL
- anti-leukemia activity compared to PTL (in words) ([5]; listed as 3): potency and selectivity similar to 1
- solubility in aqueous media (in words) [6]: sparingly soluble

- effect of preincubation on binding of IKK-β to 4 ([7]; 2 h pretreatment before 4, FIG. 5 lane 5): potently reduced binding
- effect of preincubation on binding of p65 to 4 [8]: potently reduced binding
Compound: C=C1C(=O)O[C@H]2[C@H]1CC/C(C)=C/CC[C@@]1(C)O[C@@H]21 [PTL, parthenolide]
- reduction of glutathione [9]: 11.2 fold
- water solubility (in words) [1]: relatively water-insoluble

Compound: C=C1C(=O)O[C@@H]2[C@H]3O[C@]3(C)CC/C=C(\COC(=O)CCCCCCCCCCCNC(=O)CCCC[C@@H]3SC[C@@H]4NC(=O)N[C@@H]43)CC[C@@H]12 [Prodrug 4, 14-[N-(Biotinyl)-12-aminododecanoxy]melampomagnolide B]
- concentration at which a significant loss of phosphorylation of NF-κB p65 is observed [4]: 20 µM
- concentration achieving efficient induction of cell death [5]: 20 to 30 µM
- reduction of activity relative to 1 ([5]; from viability and NF-κB phosphorylation analysis): approximately 2 fold
- binding of IKK-β in pull-down ([7]; primary leukemia cells, 4 h incubation with 4, FIG. 5): one product identified was IKK-β
